# In ChEMBL document CHEMBL5223089, “Cyclosporin Structure and Permeability: From A to Z and Beyond” (J Med Chem, 2021):
# Test system: not listed separately
# Assay: Permeability of compound by PAMP assay
# Format: ADME
# Conditions: not told; read-out: permeability
row,Structure (SMILES),Papp [×10⁻⁶ cm/s]
1,C/C=C/C[C@@H](C)[C@@H](O)[C@H]1C(=O)N[C@@H](CC)C(=O)N(C)CC(=O)N[C@@H](CC(C)C)C(=O)N[C@@H](C(C)C)C(=O)N(C)[C@@H](CC(C)C)C(=O)N[C@@H](C)C(=O)N[C@H](C)C(=O)N(C)[C@@H](CC(C)C)C(=O)N(C)[C@@H](CC(C)C)C(=O)N(C)[C@@H](C(C)C)C(=O)N1C,2.5
2,C/C=C/C[C@@H](C)[C@@H](O)[C@H]1C(=O)N[C@@H](CC)C(=O)N(C)CC(=O)N[C@@H](CC(C)C)C(=O)N[C@@H](C(C)C)C(=O)N[C@@H](CC(C)C)C(=O)N[C@@H](C)C(=O)N[C@H](C)C(=O)N(C)[C@@H](CC(C)C)C(=O)N(C)[C@@H](CC(C)C)C(=O)N(C)[C@@H](C(C)C)C(=O)N1C,4.1
3,C/C=C/C[C@@H](C)[C@@H](OC(C)=O)[C@H]1C(=O)N[C@@H](CC)C(=O)N(C)CC(=O)N(C)[C@@H](CC(C)C)C(=O)N[C@@H](C(C)C)C(=O)N(C)[C@@H](CC(C)C)C(=O)N[C@@H](C)C(=O)N[C@H](C)C(=O)N(C)[C@@H](CC(C)C)C(=O)N(C)[C@@H](CC(C)C)C(=O)N(C)[C@@H](C(C)C)C(=O)N1C,3.3
4,C/C=C/C[C@@H](C)[C@@H](O)[C@H]1C(=O)N[C@@H]([C@@H](C)O)C(=O)N(C)CC(=O)N(C)[C@@H](CC(C)C)C(=O)N[C@@H](C(C)C)C(=O)N(C)[C@@H](CC(C)C)C(=O)N[C@@H](C)C(=O)N[C@H](C)C(=O)N(C)[C@@H](CC(C)C)C(=O)N(C)[C@@H](CC(C)C)C(=O)N(C)[C@@H](C(C)C)C(=O)N1C,2.8
5,C/C=C/C[C@@H](C)[C@@H](O)[C@H]1C(=O)N[C@@H](CC)C(=O)N(C)CC(=O)N(C)[C@@H](CC(C)C)C(=O)N[C@@H](C(C)C)C(=O)N(C)[C@@H](CC(C)C)C(=O)N[C@@H](C)C(=O)N[C@H](C)C(=O)N(C)[C@@H](CC(C)C)C(=O)N(C)[C@@H](CC(C)C)C(=O)N[C@@H](C(C)C)C(=O)N1C,0.42
6,C/C=C/C[C@@H](C)[C@@H](O)[C@H]1C(=O)N[C@@H](C(C)C)C(=O)N(C)CC(=O)N(C)[C@@H](CC(C)C)C(=O)N[C@@H](C(C)C)C(=O)N(C)[C@@H](CC(C)C)C(=O)N[C@@H](C)C(=O)N[C@H](C)C(=O)N(C)[C@@H](CC(C)C)C(=O)N(C)[C@@H](CC(C)C)C(=O)N(C)[C@@H](C(C)C)C(=O)N1C,4.4
7,C/C=C/C[C@@H](C)[C@@H](O)[C@H]1C(=O)N[C@@H](C)C(=O)N(C)CC(=O)N(C)[C@@H](CC(C)C)C(=O)N[C@@H](C(C)C)C(=O)N(C)[C@@H](CC(C)C)C(=O)N[C@@H](C)C(=O)N[C@H](C)C(=O)N(C)[C@@H](CC(C)C)C(=O)N(C)[C@@H](CC(C)C)C(=O)N(C)[C@@H](C(C)C)C(=O)N1C,7.9

# Organism: Homo sapiens
# Assay: Binding affinity to mCherry labelled that cyclophilin (unknown origin) assessed as fold change
# Conditions: not given
row,Structure (SMILES),fold change (FC)
1,C/C=C/C[C@@H](C)[C@@H](O)[C@H]1C(=O)N[C@@H](CC)C(=O)N(C)CC(=O)N(C)[C@@H](C(C)C)C(=O)N[C@@H](C(C)C)C(=O)N(C)[C@@H](CC(C)C)C(=O)N[C@@H](C)C(=O)N[C@H](C)C(=O)N(C)[C@@H](CC(C)C)C(=O)N(C)[C@@H](CC(C)C)C(=O)N(C)[C@@H](C(C)C)C(=O)N1C,2

# Organism: Homo sapiens
# Assay: Binding affinity to mCherry labelled that cyclophilin (unknown origin) relative to control
# Conditions: not given
row,Structure (SMILES),Activity [%]
1,C/C=C/C[C@@H](C)[C@@H](O)[C@H]1C(=O)N[C@@H](CC)C(=O)N(C)CC(=O)N(C)[C@@H](C(C)C)C(=O)N[C@@H](C(C)C)C(=O)N(C)[C@@H](CC(C)C)C(=O)N[C@@H](C)C(=O)N[C@H](C)C(=O)N(C)[C@@H](CC(C)C)C(=O)N(C)[C@@H](CC(C)C)C(=O)N(C)[C@@H](C(C)C)C(=O)N1C,126
